From ChEMBL document CHEMBL1201862, “PubChem BioAssay data set” (2004)
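These data come from cells grown in 96-well plates and exposed to compound for 48 hours at five concentrations. Here, GI50 denotes the concentration required for 50% inhibition of growth.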 The source made the active and inactive calls. Rule as the data show it: active = GI50 up to about 1.1 µM and inactive = higher.

Key:
Test in all cases: NCI anticancer screen, dose series, 48 h
HOP-62 = system: HOP-62
NCI-H460 = system: NCI-H460
OVCAR-5 = system: OVCAR-5
HCT-116 = system: HCT-116
T47D = system: T47D
Hs-578T = system: Hs-578T
SNB-19 = system: SNB-19
K562 = system: K562
ACHN = system: ACHN
TK-10 = system: TK-10
KM12 = system: KM12
OVCAR-8 = system: OVCAR-8
EKVX = system: EKVX
HL-60 = system: HL-60
UACC-62 = system: UACC-62
A549 = system: A549
Malme-3M = system: Malme-3M
NCI-H522 = system: NCI-H522
MDA-N = system: MDA-N
RXF 393 = system: RXF 393

SMILES | GI50 (HOP-62) | GI50 (NCI-H460) | GI50 (OVCAR-5) | GI50 (HCT-116) | GI50 (T47D) | GI50 (Hs-578T) | GI50 (SNB-19) | GI50 (K562) | GI50 (ACHN) | GI50 (TK-10) | GI50 (KM12) | GI50 (OVCAR-8) | GI50 (EKVX) | GI50 (HL-60) | GI50 (UACC-62) | GI50 (A549) | GI50 (Malme-3M) | GI50 (NCI-H522) | GI50 (MDA-N) | GI50 (RXF 393)
Cc1c(-c2ccc(O)cc2)n(CCCCCCNCCOC(=O)NCCCc2ccc(N(CCCl)CCCl)cc2)c2ccc(O)cc12 | 2.54 µM (inactive) | 1.52 µM (inactive) | 15.1 µM (inactive) | 1.52 µM (inactive) | 0.0552 µM (active) | 1.98 µM (inactive) | 13.2 µM (inactive) | 2.67 µM (inactive) | 3.71 µM (inactive) | 2.24 µM (inactive) | 2.25 µM (inactive) | 1.38 µM (inactive) | 3.05 µM (inactive) | 1.44 µM (inactive) | 1.79 µM (inactive) | 1.88 µM (inactive) | 1.6 µM (inactive) | 1.69 µM (inactive) | 1.73 µM (inactive) | 
COc1cc(OCc2ccc3nc(-c4ccccc4)c(Cl)nc3c2)cc(OC)c1OC | 33.3 µM (inactive) | 90.2 µM (inactive) | 77.1 µM (inactive) | 76.6 µM (inactive) | 93.8 µM (inactive) | 39.6 µM (inactive) | 52.7 µM (inactive) |  | 32.3 µM (inactive) | 19.4 µM (inactive) | > 100 µM (inactive) | > 100 µM (inactive) | 59.2 µM (inactive) | 24.5 µM (inactive) | 83.2 µM (inactive) | > 100 µM (inactive) | 26.3 µM (inactive) | 33.3 µM (inactive) | > 100 µM (inactive) | 
CC(C)=CCc1cc(/C=C/C(=O)O)cc(CC=C(C)C)c1O [ARTEPILLIN] | > 100 µM (inactive) | > 100 µM (inactive) | > 100 µM (inactive) | > 100 µM (inactive) |  | > 100 µM (inactive) | > 100 µM (inactive) | 76 µM (inactive) | > 100 µM (inactive) | > 100 µM (inactive) | 76 µM (inactive) | > 100 µM (inactive) | 81.7 µM (inactive) | > 100 µM (inactive) | 66.8 µM (inactive) | > 100 µM (inactive) |  | 31.3 µM (inactive) | > 100 µM (inactive) | 
CCCCOC(=O)C(NC(C(=O)OCCCC)c1cc(C(C)(C)C)c(O)c(C(C)(C)C)c1)c1cc(C(C)(C)C)c(O)c(C(C)(C)C)c1 (centres undefined) | > 100 µM (inactive) |  | > 100 µM (inactive) | 77.1 µM (inactive) | > 100 µM (inactive) | > 100 µM (inactive) | > 100 µM (inactive) | 56.9 µM (inactive) | > 100 µM (inactive) | > 100 µM (inactive) | > 100 µM (inactive) | > 100 µM (inactive) | > 100 µM (inactive) | > 100 µM (inactive) | > 100 µM (inactive) | > 100 µM (inactive) | > 100 µM (inactive) | > 100 µM (inactive) | > 100 µM (inactive) | 
COc1cc(OC)cc(-n2c(N)c(-c3nc4ccccc4s3)c3ccc([N+](=O)[O-])cc3c2=O)c1 |  | 32.7 µM (inactive) |  | 24.9 µM (inactive) | 17.2 µM (inactive) | 27.7 µM (inactive) | 18.1 µM (inactive) | 13.4 µM (inactive) | 12.5 µM (inactive) | 13.3 µM (inactive) | 56.9 µM (inactive) | 13.3 µM (inactive) |  | 0.208 µM (active) | > 100 µM (inactive) |  | 32.5 µM (inactive) | 23.9 µM (inactive) | > 100 µM (inactive) | 
C(=C\c1cc(-c2ccc3ccccc3n2)nc2ccc3ccccc3c12)/c1ccc2ccccc2n1 | > 100 µM (inactive) | > 100 µM (inactive) | > 100 µM (inactive) | > 100 µM (inactive) |  | 29.4 µM (inactive) | > 100 µM (inactive) | > 100 µM (inactive) | > 100 µM (inactive) | > 100 µM (inactive) | > 100 µM (inactive) | > 100 µM (inactive) | > 100 µM (inactive) | > 100 µM (inactive) | > 100 µM (inactive) | > 100 µM (inactive) | > 100 µM (inactive) |  | > 100 µM (inactive) | > 100 µM (inactive)
COc1ccc2c(ccc3c(COC(=O)NC(C)C)c(COC(=O)NC(C)C)n(C)c32)c1 | 4.99 µM (inactive) | 0.414 µM (active) | 9.79 µM (inactive) | 6.04 µM (inactive) | 7.52 µM (inactive) | 13.7 µM (inactive) | 14.2 µM (inactive) | 6.08 µM (inactive) | 1.81 µM (inactive) | 11.2 µM (inactive) | 11.5 µM (inactive) | 5.9 µM (inactive) | 16.4 µM (inactive) |  | 4.42 µM (inactive) | 11.3 µM (inactive) | 2.54 µM (inactive) | 2.36 µM (inactive) | 12.3 µM (inactive) | 9.02 µM (inactive)
O=C(NCc1ccc(Cl)cc1)c1cc2sccc2nc1C(F)(F)F | 22.3 µM (inactive) |  | > 100 µM (inactive) | 33.3 µM (inactive) | > 100 µM (inactive) | 19.8 µM (inactive) | 22.5 µM (inactive) | > 100 µM (inactive) | 20.6 µM (inactive) | 33.7 µM (inactive) | 87.1 µM (inactive) | 26.4 µM (inactive) | 34 µM (inactive) |  | 35.2 µM (inactive) | 34.2 µM (inactive) | 42.3 µM (inactive) | 29.7 µM (inactive) | > 100 µM (inactive) | 24 µM (inactive)
CC(=O)NC1C(OC(C)C(=O)NC(C(=O)NC(CCC(=O)NCCCNC2c3ccccc3Nc3cccc([N+](=O)[O-])c32)C(N)=O)C(C)C)C(O)C(CO)OC1(C)OCc1ccccc1 (centres undefined) | 1.27 µM (inactive) | 0.108 µM (active) | 3.94 µM (inactive) | 0.256 µM (active) | 1.73 µM (inactive) | 1.64 µM (inactive) | 1.56 µM (inactive) | 0.363 µM (active) | 0.621 µM (active) | 0.133 µM (active) | 1.77 µM (inactive) | 1.1 µM (active) | 1.54 µM (inactive) |  | 0.577 µM (active) | 0.399 µM (active) | 1.12 µM (inactive) | 0.637 µM (active) | 0.634 µM (active) | 0.36 µM (active)
C[As+](C)(c1ccc(Br)c([N+](=O)[O-])c1)c1ccc(Br)c([N+](=O)[O-])c1 | > 100 µM (inactive) | > 100 µM (inactive) | > 100 µM (inactive) | > 100 µM (inactive) | > 100 µM (inactive) | > 100 µM (inactive) | > 100 µM (inactive) | > 100 µM (inactive) | > 100 µM (inactive) | > 100 µM (inactive) | > 100 µM (inactive) | > 100 µM (inactive) | > 100 µM (inactive) |  | > 100 µM (inactive) | > 100 µM (inactive) | 18.5 µM (inactive) | 87.7 µM (inactive) | > 100 µM (inactive) | > 100 µM (inactive)
CCOC(=O)c1c(N2CCOCC2)[nH]c(=O)c(C(c2ccc(Cl)c([N+](=O)[O-])c2)c2c(O)c(C(=O)OCC)c(N3CCOCC3)[nH]c2=O)c1O | 34.9 µM (inactive) | > 100 µM (inactive) | > 100 µM (inactive) | 20.3 µM (inactive) | 19.7 µM (inactive) | > 100 µM (inactive) | 26.5 µM (inactive) | 30.3 µM (inactive) | 55.1 µM (inactive) | 39.9 µM (inactive) | > 100 µM (inactive) | 18.4 µM (inactive) | > 100 µM (inactive) |  | 40.1 µM (inactive) | > 100 µM (inactive) | 41.4 µM (inactive) | 28 µM (inactive) | 26.1 µM (inactive) | > 100 µM (inactive)
CCOP(=O)(Nc1ccccc1P(=O)(OCC)OCC)OCC | > 100 µM (inactive) | > 100 µM (inactive) | > 100 µM (inactive) | > 100 µM (inactive) |  | > 100 µM (inactive) | > 100 µM (inactive) | > 100 µM (inactive) | > 100 µM (inactive) | > 100 µM (inactive) | > 100 µM (inactive) | > 100 µM (inactive) | > 100 µM (inactive) |  | > 100 µM (inactive) | > 100 µM (inactive) | > 100 µM (inactive) | > 100 µM (inactive) | > 100 µM (inactive) | > 100 µM (inactive)
COC(=O)/C=C(/C=C1/C(C#N)=C(N)N(c2ccc(Cl)cc2)C1(C)/C(=C/C(=O)OC)C(=O)OC)C(=O)OC (centres undefined) | > 100 µM (inactive) | 40.6 µM (inactive) | > 100 µM (inactive) | 28.9 µM (inactive) | 49.1 µM (inactive) |  | > 100 µM (inactive) | 20.6 µM (inactive) | 42.7 µM (inactive) | 60.1 µM (inactive) |  | 33.5 µM (inactive) | 46.1 µM (inactive) | 15.7 µM (inactive) | 19.6 µM (inactive) |  | 51.2 µM (inactive) | 33.2 µM (inactive) | 45.1 µM (inactive) | 
c1cnn(C23C4C5C6C4C2C6C53)c1 (centres undefined) | > 100 µM (inactive) | > 100 µM (inactive) | > 100 µM (inactive) | > 100 µM (inactive) | > 100 µM (inactive) | > 100 µM (inactive) | > 100 µM (inactive) | > 100 µM (inactive) | > 100 µM (inactive) | > 100 µM (inactive) | > 100 µM (inactive) | > 100 µM (inactive) | > 100 µM (inactive) | > 100 µM (inactive) |  | > 100 µM (inactive) |  | > 100 µM (inactive) | > 100 µM (inactive) | 
COc1cc([C@@H]2c3cc4c(cc3[C@@H](NCCNCCO)[C@H]3COC(=O)[C@H]23)OCO4)cc(OC)c1O | 1.2 µM (inactive) | 0.0951 µM (active) |  | 2 µM (inactive) | 0.841 µM (active) | 2.63 µM (inactive) | 0.836 µM (active) | 1.04 µM (active) |  | 7.38 µM (inactive) | 3.72 µM (inactive) | 1.81 µM (inactive) |  |  | 0.601 µM (active) | 0.406 µM (active) |  |  | 3.88 µM (inactive) | 2.02 µM (inactive)
